Twelve compounds from ChEMBL document CHEMBL5465560, “Selectivity Literature for EUbOPEN Chemogenomic Library” (2024) can be followed below.

The term Kd denotes the concentration at which binding is half-saturated. Higher therefore signals a looser complex.

In experiment [1] the target is Cyclin-dependent kinase 4/cyclin D1 (Homo sapiens, UniProt P11802). The experiment is described as follows: Selectivity interaction (Competition-binding assay (DiscoverX)) EUB0001632a CDK4. In kind it is protein-complex assay.
Experiment [2] concerns Platelet-derived growth factor receptor alpha (Homo sapiens), P16234 [D842V]. The experiment in a line: (§1) Selectivity interaction (SelectScreen profiling (Invitrogen)) EUB0000607a PDGFRA. As to conditions: at 2 µM.
Platelet-derived growth factor receptor alpha (Homo sapiens), P16234 [D842V], sequence (P16234 whole entry D842V): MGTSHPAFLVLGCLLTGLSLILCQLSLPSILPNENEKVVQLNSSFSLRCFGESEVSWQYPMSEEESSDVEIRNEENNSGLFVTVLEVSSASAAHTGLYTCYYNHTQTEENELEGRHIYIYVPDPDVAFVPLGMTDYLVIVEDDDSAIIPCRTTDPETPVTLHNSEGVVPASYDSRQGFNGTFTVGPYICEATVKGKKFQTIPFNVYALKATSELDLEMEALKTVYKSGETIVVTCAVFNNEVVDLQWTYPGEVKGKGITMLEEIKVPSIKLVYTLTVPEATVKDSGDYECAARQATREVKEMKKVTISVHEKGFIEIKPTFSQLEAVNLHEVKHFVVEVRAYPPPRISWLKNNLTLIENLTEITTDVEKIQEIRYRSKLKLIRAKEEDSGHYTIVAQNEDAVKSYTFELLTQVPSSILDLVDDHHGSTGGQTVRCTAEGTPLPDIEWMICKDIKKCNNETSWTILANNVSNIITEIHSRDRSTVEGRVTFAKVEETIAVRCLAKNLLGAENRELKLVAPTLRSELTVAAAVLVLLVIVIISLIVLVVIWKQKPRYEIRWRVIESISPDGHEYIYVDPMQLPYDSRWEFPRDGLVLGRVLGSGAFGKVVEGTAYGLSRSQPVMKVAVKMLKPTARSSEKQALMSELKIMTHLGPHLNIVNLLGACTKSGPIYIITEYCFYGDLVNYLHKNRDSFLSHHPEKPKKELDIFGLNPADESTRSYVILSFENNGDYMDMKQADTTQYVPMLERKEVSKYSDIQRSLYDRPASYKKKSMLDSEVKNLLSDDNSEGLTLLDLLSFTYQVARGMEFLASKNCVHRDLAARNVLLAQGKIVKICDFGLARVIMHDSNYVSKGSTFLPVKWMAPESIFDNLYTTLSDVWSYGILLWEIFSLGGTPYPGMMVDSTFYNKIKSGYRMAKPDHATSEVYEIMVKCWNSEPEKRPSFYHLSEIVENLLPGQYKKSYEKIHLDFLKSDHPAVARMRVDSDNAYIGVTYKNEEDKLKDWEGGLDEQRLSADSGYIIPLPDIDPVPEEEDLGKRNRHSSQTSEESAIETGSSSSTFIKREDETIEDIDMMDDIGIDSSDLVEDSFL
The test system of experiment [3] is Platelet-derived growth factor receptor alpha (Homo sapiens), P16234 [T674I]. The description is as §1. To be noted: at 2 µM.
Experiment [4] relates to Platelet-derived growth factor receptor alpha (Homo sapiens), P16234 [V561D]. The experiment is described as §1. To be noted: at 2 µM.
The target of experiment [5] is Platelet-derived growth factor receptor alpha (Homo sapiens, UniProt P16234). Described as §1. To be noted: at 2 µM.
Experiment [6] concerns the target Dual specificity protein kinase CLK4 (Homo sapiens, UniProt Q9HAZ1). To be noted: at 10 µM.
In experiment [7] the target is T1, Calcium/calmodulin-dependent protein kinase type IV (Homo sapiens) (UniProt Q16566).
T1 sequence (whole entry): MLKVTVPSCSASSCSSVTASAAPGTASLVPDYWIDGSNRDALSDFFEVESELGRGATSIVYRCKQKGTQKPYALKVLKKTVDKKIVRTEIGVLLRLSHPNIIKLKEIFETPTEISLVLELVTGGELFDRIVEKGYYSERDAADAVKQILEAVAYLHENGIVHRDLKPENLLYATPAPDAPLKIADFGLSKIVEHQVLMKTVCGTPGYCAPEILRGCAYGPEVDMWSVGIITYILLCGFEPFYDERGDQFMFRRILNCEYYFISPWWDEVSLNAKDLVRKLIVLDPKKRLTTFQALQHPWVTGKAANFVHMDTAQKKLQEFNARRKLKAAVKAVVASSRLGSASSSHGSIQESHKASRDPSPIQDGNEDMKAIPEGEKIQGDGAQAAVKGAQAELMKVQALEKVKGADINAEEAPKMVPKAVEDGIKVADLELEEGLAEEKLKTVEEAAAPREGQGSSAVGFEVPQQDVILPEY
The experiment is described as follows: Selectivity interaction (KinomeScan (DiscoverX)) EUB0000229b CAMK4. To be noted: at 10 µM.

Experiment [8] concerns the target Macrophage colony-stimulating factor 1 receptor (Homo sapiens) (UniProt P07333). The experiment in a line: Selectivity interaction (KinomeScan (DiscoverX)) EUB0001079a CSF1R. As to conditions: at 1 µM.
Experiment [9] deals with Serine/threonine-protein kinase Nek6 (Homo sapiens) (UniProt Q9HC98). The experiment in a line: Selectivity interaction (KinomeScan (DiscoverX)) EUB0001079a NEK6. To be noted: at 1 µM.
The target of experiment [10] is 5-hydroxytryptamine receptor 2B (Homo sapiens, UniProt P41595). The experiment is described as follows: Selectivity interaction (Safety Panel 44tm (Eurofins)) EUB0000162b HTR2B. As to conditions: at 10 µM.
The target in experiment [11] is T2, Dual specificity mitogen-activated protein kinase kinase 6 (Homo sapiens) (UniProt P52564).
T2 sequence (whole entry): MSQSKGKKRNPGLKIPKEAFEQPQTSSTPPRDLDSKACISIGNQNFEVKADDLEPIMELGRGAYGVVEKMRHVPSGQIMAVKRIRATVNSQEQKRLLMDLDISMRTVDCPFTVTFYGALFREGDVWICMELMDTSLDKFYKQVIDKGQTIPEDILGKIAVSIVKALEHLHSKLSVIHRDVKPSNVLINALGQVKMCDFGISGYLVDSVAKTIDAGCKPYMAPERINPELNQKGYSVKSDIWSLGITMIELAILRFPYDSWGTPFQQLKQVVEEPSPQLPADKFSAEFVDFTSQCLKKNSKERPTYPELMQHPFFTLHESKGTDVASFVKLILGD
The experiment in a line: Selectivity interaction (ActivX KiNativ screen (kinase selectivity in THP-1 cell lysates)) EUB0000639a MAP2K6. In kind it is subcellular. To be noted: lysate, at 0.01 µM.

In experiment [12] the target is Ribosomal protein S6 kinase alpha-1 (Homo sapiens, UniProt Q15418). The experiment in a line: Selectivity interaction (ActivX KiNativ screen (kinase selectivity in THP-1 cell lysates)) EUB0000639a RPS6KA1. In kind it is subcellular. As to conditions: lysate, at 5 µM.
Ribosomal protein S6 kinase alpha-1, sequence (Q15418 whole entry): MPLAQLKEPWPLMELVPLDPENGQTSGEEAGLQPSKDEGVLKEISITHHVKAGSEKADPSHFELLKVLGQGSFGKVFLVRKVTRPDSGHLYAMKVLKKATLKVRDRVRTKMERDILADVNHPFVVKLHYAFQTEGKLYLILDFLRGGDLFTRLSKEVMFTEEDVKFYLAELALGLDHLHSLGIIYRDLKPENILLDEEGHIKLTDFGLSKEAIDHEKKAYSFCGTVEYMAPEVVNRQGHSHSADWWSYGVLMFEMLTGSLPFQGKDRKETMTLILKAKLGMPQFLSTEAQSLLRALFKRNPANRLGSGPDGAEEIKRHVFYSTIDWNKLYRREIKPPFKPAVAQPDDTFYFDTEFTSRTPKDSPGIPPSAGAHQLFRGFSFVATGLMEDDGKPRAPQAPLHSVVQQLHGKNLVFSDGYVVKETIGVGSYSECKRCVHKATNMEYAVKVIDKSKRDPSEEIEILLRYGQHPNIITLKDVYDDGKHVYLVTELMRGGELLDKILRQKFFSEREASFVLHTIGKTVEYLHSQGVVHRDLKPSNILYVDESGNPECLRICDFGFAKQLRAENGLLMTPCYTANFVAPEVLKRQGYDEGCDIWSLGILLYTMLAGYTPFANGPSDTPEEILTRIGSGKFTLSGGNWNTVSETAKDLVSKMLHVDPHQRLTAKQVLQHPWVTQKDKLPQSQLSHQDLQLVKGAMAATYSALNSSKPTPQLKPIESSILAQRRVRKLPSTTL
The target in experiment [13] is Wee1-like protein kinase 2 (Homo sapiens) (UniProt P0C1S8). The experiment is described as follows: Selectivity interaction (KinomeScan (DiscoverX)) EUB0000695a WEE2. As to conditions: at 100 nM.
Experiment [14] addresses Cyclin-dependent kinase 5/CDK5 activator 1 (Homo sapiens) (UniProt Q00535+Q15078). The experiment is described as follows: Selectivity interaction (ProQinase) EUB0000171b CDK5. The experiment is classed as protein-complex assay. As to conditions: at 5 µM.
Experiment [15] relates to Proto-oncogene tyrosine-protein kinase receptor Ret (Homo sapiens), P07949 [M918T]. The experiment in a line: (§2) Selectivity interaction (KinomeScan (DiscoverX)) EUB0000092b RET. To be noted: at 10 µM.
Experiment [16] concerns Proto-oncogene tyrosine-protein kinase receptor Ret (Homo sapiens), P07949 [V804L]. The experiment is described as §2. To be noted: at 10 µM.
Experiment [17] concerns Proto-oncogene tyrosine-protein kinase receptor Ret (Homo sapiens), P07949 [V804M]. Described as §2. To be noted: at 10 µM.
The target in experiment [18] is Proto-oncogene tyrosine-protein kinase receptor Ret (Homo sapiens, UniProt P07949). Described as §2. To be noted: at 10 µM.
Proto-oncogene tyrosine-protein kinase receptor Ret, sequence (P07949 whole entry): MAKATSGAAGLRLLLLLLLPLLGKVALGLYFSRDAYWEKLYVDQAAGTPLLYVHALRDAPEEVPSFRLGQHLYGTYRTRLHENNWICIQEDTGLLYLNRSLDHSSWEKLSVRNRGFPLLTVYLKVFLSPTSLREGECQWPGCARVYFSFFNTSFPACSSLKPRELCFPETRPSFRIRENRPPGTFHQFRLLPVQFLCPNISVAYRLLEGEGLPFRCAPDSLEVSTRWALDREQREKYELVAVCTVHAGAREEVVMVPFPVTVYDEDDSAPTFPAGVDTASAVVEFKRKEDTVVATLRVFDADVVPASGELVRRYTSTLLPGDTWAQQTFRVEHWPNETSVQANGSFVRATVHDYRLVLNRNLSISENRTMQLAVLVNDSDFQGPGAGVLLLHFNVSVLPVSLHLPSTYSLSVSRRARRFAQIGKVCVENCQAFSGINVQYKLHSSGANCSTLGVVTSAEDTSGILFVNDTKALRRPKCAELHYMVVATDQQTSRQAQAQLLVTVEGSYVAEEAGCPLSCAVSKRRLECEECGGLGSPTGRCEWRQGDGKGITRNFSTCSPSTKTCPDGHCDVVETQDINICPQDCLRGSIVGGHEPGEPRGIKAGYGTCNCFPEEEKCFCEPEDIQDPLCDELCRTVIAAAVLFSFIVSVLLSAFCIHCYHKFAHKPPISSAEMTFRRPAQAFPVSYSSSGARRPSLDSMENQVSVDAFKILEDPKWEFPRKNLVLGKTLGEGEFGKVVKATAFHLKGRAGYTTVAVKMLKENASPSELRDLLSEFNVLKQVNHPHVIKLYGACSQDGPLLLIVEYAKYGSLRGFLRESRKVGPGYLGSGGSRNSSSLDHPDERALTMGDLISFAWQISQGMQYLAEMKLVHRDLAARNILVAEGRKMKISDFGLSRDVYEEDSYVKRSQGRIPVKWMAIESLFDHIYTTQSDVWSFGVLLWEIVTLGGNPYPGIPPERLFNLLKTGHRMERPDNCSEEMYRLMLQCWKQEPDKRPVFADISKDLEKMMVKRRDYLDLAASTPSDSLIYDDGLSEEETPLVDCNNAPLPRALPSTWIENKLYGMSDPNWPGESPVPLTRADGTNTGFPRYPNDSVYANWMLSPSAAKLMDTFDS
The target of experiment [19] is STE20/SPS1-related proline-alanine-rich protein kinase (Homo sapiens) (UniProt Q9UEW8). The experiment is described as follows: Selectivity interaction (KinomeScan (DiscoverX)) EUB0000092b STK39. As to conditions: at 10 µM.
The target of experiment [20] is T3, SNF-related serine/threonine-protein kinase (Homo sapiens) (UniProt Q9NRH2).
T3 sequence (whole entry): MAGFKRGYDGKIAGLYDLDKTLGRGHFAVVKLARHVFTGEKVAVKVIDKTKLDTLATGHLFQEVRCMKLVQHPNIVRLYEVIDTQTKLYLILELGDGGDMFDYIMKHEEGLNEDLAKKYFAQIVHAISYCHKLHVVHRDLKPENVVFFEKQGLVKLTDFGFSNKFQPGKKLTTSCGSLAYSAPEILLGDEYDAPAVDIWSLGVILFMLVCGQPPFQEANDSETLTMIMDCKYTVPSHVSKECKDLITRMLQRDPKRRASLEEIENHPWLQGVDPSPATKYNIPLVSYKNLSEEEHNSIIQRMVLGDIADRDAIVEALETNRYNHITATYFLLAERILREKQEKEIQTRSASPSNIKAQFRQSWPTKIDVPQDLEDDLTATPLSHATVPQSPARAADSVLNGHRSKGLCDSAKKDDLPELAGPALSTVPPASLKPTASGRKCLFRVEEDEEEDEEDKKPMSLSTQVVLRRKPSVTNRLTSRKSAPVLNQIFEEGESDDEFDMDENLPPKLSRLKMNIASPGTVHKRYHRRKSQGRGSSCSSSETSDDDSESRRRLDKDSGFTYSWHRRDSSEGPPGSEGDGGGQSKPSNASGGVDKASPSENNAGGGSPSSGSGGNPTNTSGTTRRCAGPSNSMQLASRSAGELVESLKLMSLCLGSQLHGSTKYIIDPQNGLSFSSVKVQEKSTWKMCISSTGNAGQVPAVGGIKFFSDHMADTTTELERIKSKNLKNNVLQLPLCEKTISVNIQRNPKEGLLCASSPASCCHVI
The experiment is described as follows: Selectivity interaction (KinomeScan (DiscoverX)) EUB0000618a SNRK. As to conditions: at 10 µM.

Experiment [21] deals with Phosphatidylinositol 4-phosphate 5-kinase type-1 gamma (Homo sapiens) (UniProt O60331). The experiment in a line: Selectivity interaction (KinomeScan (DiscoverX)) EUB0000595a PIP5K1C. As to conditions: at 10 µM.
Phosphatidylinositol 4-phosphate 5-kinase type-1 gamma (Homo sapiens), sequence (O60331 whole entry): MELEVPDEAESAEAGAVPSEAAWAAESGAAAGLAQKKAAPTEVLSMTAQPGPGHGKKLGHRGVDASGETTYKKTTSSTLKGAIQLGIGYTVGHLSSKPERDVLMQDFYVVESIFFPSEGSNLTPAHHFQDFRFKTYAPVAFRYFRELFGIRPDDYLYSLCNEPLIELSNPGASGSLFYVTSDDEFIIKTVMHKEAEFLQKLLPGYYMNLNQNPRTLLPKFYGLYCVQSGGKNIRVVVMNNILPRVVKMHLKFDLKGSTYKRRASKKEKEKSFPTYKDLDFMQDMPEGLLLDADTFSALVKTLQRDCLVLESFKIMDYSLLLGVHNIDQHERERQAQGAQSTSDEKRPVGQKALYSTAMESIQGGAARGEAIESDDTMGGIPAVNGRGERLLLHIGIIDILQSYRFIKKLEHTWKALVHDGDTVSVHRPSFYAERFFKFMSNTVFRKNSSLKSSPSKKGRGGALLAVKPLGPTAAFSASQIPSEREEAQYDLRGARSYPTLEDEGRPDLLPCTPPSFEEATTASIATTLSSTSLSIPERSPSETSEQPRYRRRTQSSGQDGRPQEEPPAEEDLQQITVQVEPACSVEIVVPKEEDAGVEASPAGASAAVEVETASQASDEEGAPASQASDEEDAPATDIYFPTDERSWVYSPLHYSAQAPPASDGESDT

Macrophage colony-stimulating factor 1 receptor (Homo sapiens), sequence (P07333 whole entry): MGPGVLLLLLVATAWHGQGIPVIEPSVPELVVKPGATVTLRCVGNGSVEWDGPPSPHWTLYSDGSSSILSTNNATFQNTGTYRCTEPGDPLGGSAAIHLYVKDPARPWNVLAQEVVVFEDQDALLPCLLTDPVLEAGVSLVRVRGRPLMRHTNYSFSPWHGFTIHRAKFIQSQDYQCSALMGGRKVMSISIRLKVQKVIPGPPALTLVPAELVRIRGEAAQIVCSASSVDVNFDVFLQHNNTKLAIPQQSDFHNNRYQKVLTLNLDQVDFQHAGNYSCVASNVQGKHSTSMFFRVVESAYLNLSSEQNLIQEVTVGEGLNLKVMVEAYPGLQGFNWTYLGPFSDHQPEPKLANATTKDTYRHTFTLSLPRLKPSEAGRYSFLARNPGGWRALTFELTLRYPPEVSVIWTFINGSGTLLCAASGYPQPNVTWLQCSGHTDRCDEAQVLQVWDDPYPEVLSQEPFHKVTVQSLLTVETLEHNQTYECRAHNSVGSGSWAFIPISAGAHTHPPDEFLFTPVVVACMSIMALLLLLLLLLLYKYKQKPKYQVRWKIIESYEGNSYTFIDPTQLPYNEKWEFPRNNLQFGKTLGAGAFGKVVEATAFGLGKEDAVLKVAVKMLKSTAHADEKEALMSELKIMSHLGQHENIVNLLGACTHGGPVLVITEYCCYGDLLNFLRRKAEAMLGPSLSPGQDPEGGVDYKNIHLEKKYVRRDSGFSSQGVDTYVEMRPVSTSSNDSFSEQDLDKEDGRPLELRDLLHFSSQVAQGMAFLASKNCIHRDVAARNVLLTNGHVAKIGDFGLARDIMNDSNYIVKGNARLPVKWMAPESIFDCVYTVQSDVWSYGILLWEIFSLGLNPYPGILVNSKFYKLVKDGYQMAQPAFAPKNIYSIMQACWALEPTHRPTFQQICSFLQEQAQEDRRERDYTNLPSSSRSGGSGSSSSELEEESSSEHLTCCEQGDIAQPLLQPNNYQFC
Dual specificity protein kinase CLK4, sequence (Q9HAZ1 whole entry, looked up): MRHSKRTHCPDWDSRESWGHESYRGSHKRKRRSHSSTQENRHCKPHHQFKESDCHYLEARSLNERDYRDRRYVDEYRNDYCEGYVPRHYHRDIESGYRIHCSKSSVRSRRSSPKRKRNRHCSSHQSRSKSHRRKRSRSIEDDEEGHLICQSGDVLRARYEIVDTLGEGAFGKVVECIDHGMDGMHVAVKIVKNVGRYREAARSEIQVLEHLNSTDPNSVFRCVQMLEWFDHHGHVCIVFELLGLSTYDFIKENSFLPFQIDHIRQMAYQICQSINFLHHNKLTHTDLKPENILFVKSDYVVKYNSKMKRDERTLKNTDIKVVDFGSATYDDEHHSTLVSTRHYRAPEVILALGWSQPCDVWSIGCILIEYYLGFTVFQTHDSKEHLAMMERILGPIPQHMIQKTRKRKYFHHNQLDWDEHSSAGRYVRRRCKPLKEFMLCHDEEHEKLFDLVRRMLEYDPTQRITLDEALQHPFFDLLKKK

For the compound `Cn1cc(-n2cnc3c(NCc4nc5cc(Cl)c(Cl)cc5[nH]4)nc(N4CCOCC4)nc32)cn1`, the Kd in [1] was > 10 µM.

Turning to `CNC(=O)Nc1ccc(-c2nc(N3CC4CCC(C3)O4)c3cnn(C4CCC5(CC4)OCCO5)c3n2)cc1`, the % of inhibition is 4% in experiment [2], 12% in [3], 3% in experiment [4] and 0% in experiment [5].

On to `Cc1cc([C@@H](C)Nc2ccccc2C(=O)O)c2nc(N3CCOCC3)cc(=O)n2c1` [AZD-6482], for which the % of control in [6] was determined as 68%.

Turning to `COc1cc(N(C)c2ccnc3ccc(C(F)(F)F)cc23)cc(OC)c1OC`, the % binding in experiment [7] amounted to 98%.

On to `Nc1cnc(N2CCc3cc(S(=O)(=O)Nc4c(F)cc(Cl)cc4F)cc(N4CCCC4=O)c32)nc1` [TP-020n], for which the % of control in experiment [8] and in experiment [9] was 100% in each case.

`CN(C)C(=O)Cn1cc(-c2ccc(-c3cncc4ccccc34)cc2)cn1` returned a % of control in experiment [10] of 34%.

For the compound `CC[C@@H]1[C@H](F)C(=O)N[C@@H]1COc1nccc2cc(C(N)=O)c(OC)cc12` [ZIMLOVISERTIB], the % of inhibition in experiment [11] worked out at 7.4%; in experiment [12] it was 21.5%.

`Cc1cc(F)c(C(=O)Nc2cccc(-c3nncn3C(C)C)n2)cc1-n1cnc(C2CC2)c1` came in with a % of control in experiment [13] of 100%.

`C=CC(=O)Nc1cccc(C(=O)Nc2ccc(Nc3cc(-c4[nH]c(SC)nc4C)ccn3)cc2)c1`: the % of control in [14] is 36%.

As to `CCC(=O)N1CCN(c2ccc(-n3c(=O)ccc4cnc5ccc(-c6cnc7ccccc7c6)cc5c43)cc2C(F)(F)F)CC1`, the % of control is 51% in experiment [15]; 66% in experiment [16]; 69% in [17]; 44% in experiment [18]; 100% in [19].

Turning to `O[C@H]1CC[C@H](Nc2ncc3nc(Nc4c(F)cc(F)cc4F)n([C@H]4CCOC4)c3n2)CC1`, the % of control in [20] was determined as 100%.

For `COCC(=O)NC/C=C/c1ccc2ncnc(Nc3ccc(Oc4ccc(C)nc4)c(C)c3)c2c1` [CP-724714], in experiment [21], the % of control was determined as 93%.
